How the values were obtained:
ABL2 = ABL2 (Homo sapiens, UniProt P42684); conditions: 10 μM
ALK = ALK (Homo sapiens, UniProt Q9UM73); conditions: 10 μM
AXL = target: T1, AXL (Homo sapiens, UniProt P30530); conditions: 10 μM
T1 sequence (P30530 26-894): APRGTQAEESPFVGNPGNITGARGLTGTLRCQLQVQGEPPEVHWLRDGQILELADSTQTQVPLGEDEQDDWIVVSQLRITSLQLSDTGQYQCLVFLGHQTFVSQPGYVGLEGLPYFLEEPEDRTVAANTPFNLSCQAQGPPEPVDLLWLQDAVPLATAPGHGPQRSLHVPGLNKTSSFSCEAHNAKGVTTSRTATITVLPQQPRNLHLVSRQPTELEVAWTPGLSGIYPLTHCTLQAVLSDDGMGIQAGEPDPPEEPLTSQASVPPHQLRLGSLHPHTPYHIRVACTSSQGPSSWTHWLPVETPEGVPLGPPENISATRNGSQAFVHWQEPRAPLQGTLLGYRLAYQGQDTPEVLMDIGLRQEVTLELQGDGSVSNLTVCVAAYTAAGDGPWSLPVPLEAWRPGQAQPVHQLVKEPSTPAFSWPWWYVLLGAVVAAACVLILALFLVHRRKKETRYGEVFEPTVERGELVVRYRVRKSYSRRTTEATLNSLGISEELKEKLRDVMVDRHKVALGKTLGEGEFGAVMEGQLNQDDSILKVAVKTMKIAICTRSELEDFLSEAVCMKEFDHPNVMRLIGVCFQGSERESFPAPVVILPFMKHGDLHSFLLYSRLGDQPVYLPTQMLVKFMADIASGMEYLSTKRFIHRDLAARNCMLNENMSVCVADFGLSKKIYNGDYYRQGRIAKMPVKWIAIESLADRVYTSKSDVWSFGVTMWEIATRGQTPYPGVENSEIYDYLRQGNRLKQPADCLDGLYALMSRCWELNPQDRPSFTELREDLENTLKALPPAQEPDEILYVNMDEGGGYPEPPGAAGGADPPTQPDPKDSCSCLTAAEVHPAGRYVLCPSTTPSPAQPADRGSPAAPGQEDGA

KIT = KIT (Homo sapiens, UniProt P10721); conditions: 10 μM
MET = MET (Homo sapiens, UniProt P08581); conditions: 10 μM
SYK = SYK (Homo sapiens, UniProt P43405); conditions: 10 μM
EPHB1 = target: T2, EPHB1 (Homo sapiens, UniProt P54762); assay: biochemical; conditions: read-out: Percent control
T2 sequence (P54762 18-984): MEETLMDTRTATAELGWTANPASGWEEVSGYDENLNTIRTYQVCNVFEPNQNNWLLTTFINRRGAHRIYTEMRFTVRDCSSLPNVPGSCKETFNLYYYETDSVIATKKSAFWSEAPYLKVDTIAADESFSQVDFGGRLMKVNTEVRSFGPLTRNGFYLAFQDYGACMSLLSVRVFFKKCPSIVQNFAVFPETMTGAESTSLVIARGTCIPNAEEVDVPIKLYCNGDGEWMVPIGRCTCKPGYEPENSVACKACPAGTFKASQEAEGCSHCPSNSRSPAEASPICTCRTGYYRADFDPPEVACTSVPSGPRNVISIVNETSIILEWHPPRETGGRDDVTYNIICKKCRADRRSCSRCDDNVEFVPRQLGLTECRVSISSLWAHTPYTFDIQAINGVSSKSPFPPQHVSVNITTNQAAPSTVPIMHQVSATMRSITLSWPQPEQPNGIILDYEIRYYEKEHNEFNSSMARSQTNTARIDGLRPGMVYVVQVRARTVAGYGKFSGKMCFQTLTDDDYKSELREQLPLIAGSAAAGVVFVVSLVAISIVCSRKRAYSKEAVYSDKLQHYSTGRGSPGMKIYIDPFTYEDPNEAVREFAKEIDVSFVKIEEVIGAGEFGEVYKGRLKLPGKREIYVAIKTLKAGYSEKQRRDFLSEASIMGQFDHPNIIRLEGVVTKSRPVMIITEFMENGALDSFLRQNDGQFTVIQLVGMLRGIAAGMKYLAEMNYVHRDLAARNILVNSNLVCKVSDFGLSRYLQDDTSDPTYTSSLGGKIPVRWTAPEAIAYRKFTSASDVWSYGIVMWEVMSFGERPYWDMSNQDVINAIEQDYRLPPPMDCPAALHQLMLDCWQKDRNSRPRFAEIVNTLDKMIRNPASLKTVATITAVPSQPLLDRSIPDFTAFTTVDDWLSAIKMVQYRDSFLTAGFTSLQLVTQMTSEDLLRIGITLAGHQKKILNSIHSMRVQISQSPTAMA

FGFR2 = FGFR2 (Homo sapiens, UniProt P21802); assay: biochemical; conditions: read-out: Percent control
FYN = FYN (Homo sapiens, UniProt P06241); assay: biochemical; conditions: read-out: Percent control
LTK = LTK (Homo sapiens, UniProt P29376); assay: biochemical; conditions: read-out: Percent control
ROS1 = ROS1 (Homo sapiens, UniProt P08922); assay: biochemical; conditions: read-out: Percent control
KIT(V559D) = KIT(V559D) (Homo sapiens, UniProt P10721, V559D); assay: biochemical; conditions: read-out: Percent control
MET(M1250T) = MET(M1250T) (Homo sapiens, UniProt P08581, M1250T); assay: biochemical; conditions: read-out: Percent control
MET(Y1235D) = MET(Y1235D) (Homo sapiens, UniProt P08581, Y1235D); assay: biochemical; conditions: read-out: Percent control
PDGFRB = PDGFRB (Homo sapiens, UniProt P09619); assay: biochemical; conditions: read-out: Percent control

Chain of KIT (P10721 26-976): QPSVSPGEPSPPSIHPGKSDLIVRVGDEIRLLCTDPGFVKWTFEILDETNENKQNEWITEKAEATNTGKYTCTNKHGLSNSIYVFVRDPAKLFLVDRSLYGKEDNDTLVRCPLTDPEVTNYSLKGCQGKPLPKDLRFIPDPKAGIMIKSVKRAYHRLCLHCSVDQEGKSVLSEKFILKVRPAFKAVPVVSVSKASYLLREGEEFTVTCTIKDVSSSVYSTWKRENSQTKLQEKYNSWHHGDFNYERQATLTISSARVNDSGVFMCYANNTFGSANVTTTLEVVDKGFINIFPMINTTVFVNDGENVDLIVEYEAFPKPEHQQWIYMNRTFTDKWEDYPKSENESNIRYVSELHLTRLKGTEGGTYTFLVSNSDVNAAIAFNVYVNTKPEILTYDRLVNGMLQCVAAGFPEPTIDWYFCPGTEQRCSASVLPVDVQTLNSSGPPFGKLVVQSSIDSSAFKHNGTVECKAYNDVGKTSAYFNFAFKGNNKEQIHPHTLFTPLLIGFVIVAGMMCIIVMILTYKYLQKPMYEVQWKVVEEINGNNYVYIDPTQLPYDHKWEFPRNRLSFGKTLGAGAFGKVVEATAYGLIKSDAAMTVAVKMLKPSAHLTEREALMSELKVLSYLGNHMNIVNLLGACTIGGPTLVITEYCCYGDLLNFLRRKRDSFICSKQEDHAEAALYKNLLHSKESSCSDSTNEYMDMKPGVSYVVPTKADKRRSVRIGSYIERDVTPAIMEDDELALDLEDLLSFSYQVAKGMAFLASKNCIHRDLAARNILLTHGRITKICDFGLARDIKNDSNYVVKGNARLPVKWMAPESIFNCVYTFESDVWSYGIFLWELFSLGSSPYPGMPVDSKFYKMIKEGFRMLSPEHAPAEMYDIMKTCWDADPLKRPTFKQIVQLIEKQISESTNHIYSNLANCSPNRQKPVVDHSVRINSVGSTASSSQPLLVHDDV
Chain of ALK (Q9UM73 19-1620): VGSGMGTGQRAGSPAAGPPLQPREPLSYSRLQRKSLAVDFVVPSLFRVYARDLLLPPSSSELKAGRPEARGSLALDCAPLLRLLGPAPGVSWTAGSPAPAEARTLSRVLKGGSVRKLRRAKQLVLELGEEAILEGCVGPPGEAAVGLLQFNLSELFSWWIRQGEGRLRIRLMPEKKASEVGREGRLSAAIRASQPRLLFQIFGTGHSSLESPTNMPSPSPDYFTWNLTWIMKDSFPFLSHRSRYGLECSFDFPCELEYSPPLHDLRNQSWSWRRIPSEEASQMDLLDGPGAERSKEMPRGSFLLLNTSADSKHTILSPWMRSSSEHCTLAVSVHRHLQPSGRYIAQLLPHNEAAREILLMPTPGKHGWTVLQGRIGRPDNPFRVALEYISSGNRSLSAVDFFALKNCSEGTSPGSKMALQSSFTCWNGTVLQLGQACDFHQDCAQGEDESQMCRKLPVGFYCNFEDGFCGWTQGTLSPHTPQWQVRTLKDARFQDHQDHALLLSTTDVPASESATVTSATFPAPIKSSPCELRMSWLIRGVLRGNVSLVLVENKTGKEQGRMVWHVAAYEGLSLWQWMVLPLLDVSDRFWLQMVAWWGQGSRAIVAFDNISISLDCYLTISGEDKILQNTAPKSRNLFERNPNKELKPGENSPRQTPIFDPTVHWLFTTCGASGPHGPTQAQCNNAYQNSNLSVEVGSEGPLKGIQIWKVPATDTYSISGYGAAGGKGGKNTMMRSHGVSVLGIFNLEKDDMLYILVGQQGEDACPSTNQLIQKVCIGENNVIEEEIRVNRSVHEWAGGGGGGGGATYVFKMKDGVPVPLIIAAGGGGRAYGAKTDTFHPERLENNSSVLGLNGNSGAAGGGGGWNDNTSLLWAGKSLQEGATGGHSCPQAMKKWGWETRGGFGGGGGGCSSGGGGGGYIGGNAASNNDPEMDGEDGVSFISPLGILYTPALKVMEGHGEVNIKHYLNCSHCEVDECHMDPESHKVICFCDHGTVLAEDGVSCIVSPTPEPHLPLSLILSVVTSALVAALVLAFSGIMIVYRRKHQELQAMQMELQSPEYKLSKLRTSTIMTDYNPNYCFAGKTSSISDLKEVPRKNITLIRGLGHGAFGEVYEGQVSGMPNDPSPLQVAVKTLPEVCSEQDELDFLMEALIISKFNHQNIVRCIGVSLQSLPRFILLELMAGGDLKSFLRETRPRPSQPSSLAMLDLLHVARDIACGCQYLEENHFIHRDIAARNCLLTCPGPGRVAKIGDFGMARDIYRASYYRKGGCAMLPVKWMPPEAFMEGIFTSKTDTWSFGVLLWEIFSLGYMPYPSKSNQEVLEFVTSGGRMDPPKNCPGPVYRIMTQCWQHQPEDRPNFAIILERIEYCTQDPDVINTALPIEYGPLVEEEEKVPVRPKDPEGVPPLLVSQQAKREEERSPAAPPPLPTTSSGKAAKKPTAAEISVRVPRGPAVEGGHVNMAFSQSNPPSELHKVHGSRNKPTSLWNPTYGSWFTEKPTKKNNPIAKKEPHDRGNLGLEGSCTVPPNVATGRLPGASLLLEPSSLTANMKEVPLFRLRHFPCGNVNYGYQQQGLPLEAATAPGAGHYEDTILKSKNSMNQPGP
Chain of FYN (P06241 whole entry): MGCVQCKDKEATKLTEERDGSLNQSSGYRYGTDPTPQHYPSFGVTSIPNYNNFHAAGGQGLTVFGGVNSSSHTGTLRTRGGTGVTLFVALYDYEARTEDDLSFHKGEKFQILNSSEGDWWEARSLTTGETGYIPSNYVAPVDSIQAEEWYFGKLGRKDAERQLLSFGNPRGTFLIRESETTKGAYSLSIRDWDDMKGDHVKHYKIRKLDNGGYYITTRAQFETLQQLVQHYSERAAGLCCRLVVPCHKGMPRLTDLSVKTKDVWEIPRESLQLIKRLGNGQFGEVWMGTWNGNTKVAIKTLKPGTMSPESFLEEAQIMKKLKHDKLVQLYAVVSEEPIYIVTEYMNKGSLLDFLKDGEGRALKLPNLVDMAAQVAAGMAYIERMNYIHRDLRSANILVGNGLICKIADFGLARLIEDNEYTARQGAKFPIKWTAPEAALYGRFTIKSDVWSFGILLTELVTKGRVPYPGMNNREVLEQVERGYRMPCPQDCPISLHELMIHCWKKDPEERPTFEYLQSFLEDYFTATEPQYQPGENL
Chain of KIT(V559D) (P10721 26-976 V559D): as the sequence (P10721 26-976) above, with V534D counted along it
Chain of MET(M1250T) (P08581 25-1390 M1250T): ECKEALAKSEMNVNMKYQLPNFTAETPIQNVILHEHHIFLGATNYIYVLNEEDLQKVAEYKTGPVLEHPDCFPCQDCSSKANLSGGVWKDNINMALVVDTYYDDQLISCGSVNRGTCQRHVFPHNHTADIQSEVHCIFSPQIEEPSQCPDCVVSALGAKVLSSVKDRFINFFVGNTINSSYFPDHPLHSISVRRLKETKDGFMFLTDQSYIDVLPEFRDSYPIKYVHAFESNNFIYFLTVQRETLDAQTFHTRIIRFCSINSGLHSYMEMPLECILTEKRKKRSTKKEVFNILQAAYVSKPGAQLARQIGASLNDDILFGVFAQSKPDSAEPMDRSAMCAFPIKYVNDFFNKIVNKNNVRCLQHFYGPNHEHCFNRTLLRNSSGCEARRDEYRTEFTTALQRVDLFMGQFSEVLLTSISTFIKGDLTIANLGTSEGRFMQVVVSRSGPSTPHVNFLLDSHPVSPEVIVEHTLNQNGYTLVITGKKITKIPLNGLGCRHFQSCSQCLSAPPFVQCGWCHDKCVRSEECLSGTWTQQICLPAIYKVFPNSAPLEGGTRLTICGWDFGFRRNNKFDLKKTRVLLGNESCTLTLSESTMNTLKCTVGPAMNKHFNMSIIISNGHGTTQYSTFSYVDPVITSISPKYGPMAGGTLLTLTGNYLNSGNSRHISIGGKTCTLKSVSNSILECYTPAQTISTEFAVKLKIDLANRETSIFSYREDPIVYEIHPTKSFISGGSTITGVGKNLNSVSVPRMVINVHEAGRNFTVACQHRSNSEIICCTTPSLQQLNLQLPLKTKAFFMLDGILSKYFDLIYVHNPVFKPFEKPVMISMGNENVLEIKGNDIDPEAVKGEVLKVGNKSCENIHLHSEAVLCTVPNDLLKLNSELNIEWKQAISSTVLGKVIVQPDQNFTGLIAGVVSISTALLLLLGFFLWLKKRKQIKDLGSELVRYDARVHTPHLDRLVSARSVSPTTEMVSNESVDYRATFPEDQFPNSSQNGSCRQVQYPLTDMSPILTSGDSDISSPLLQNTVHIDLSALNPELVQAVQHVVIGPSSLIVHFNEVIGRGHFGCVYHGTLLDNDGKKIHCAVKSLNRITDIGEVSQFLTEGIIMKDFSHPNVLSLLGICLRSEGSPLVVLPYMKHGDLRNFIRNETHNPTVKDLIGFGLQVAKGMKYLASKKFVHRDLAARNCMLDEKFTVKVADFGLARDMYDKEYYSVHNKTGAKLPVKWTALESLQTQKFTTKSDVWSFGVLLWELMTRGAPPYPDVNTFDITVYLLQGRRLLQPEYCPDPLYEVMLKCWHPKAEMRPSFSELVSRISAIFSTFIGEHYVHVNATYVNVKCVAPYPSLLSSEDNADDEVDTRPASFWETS

SMILES | Percent control (ABL2) | Percent control (ALK) | Percent control (AXL) | Percent control (KIT) | Percent control (MET) | Percent control (SYK) | remaining activity at 10 µM (EPHB1) | remaining activity at 10 µM (FGFR2) | remaining activity at 10 µM (FYN) | remaining activity at 10 µM (LTK) | remaining activity at 10 µM (ROS1) | remaining activity at 10 µM (KIT(V559D)) | remaining activity at 10 µM (MET(M1250T)) | remaining activity at 10 µM (MET(Y1235D)) | remaining activity at 10 µM (PDGFRB)
C#Cc1cccc(Nc2c3cc(OCCOC)c(OCCOC)cc3nc[n+]2[Pt@SP2-2]([NH3+])([NH3+])[Cl])c1 [2a, cisplatin-erlotinib] | 46% | 79% | 93% | 86% | 63% | 88% | – | – | – | – | – | – | – | – | –
COc1cc2c(Nc3ccc(Br)cc3F)[n+]([Pt-2]3([Cl])[NH2+]C4CCCCC4[NH2+]3)cnc2cc1OCC1CCN(C)CC1 (stereo not shown) [3b, oxaliplatin-vandetanib] | 20% | – | 19% | 1.1% | – | 85% | – | – | – | – | – | – | – | – | –
Cc1ccc(NC(=O)c2ccc(CN3CCN(C)CC3)cc2)cc1Nc1nccc(-c2cccnc2)[n+]1[Pt-2]1([Cl])[NH2+]C2CCCCC2[NH2+]1 (stereo not shown) [1b, oxaliplatin-imatinib] | – | 99% | 100% | 0.2% | 88% | – | – | – | – | – | – | – | – | – | –
COc1cc2c(Nc3ccc(Br)cc3F)ncnc2cc1OCC1CCN(C)CC1 [Vandetanib, reference compound] | – | – | – | – | – | – | 2.8% | 9.9% | 3.5% | 5.2% | 100% | – | – | – | –
Cc1ccc(NC(=O)c2ccc(CN3CCN(C)CC3)cc2)cc1Nc1nccc(-c2cccnc2)n1 [Imatinib, reference compound] | – | 100% | 100% | – | – | – | – | – | – | – | – | 0.1% | 100% | 100% | 0.1%
C#Cc1cccc(Nc2ncnc3cc(OCCOC)c(OCCOC)cc23)c1 [Erlotinib] | – | – | – | – | – | – | 9.9% | 100% | 100% | 8.2% | 100% | 23.7% | 21.9% | 9.9% | 12.3%

From article PMC4858680, “A platinum-based hybrid drug design approach to circumvent acquired resistance to molecular targeted tyrosine kinase inhibitors” (Scientific Reports, 2016)
